Source: patent US20090312280A1

Key:
Colo205 (Colon) = assay: cell survival / MTT combination cytotoxicity; format: cell-based, human; details: Colo205; IC50 cytotoxic agent alone / IC50 combination; Compound 1 at 8x EC50 (360 nM)
MDA-MB-231 (Breast) = assay: cell survival / MTT combination cytotoxicity; format: cell-based, human; details: IC50 cytotoxic agent alone / IC50 combination, Compound 1 at 8x EC50 (360 nM)
K562 (Leukemia) = assay: cell survival / MTT combination cytotoxicity; format: cell-based, human; details: IC50 cytotoxic agent alone / IC50 combination, Compound 1 at 4x EC50 (180 nM)
PC-3 (Prostate) = assay: cell survival / MTT combination cytotoxicity; format: cell-based, human; details: PC-3; IC50 cytotoxic agent alone / IC50 combination; Compound 1 at 8x EC50 (360 nM)
HT29 (Colon) = assay: cell survival / MTT combination cytotoxicity; format: cell-based, human; details: HT29; IC50 cytotoxic agent alone / IC50 combination; Compound 1 at 8x EC50 (360 nM)
[1] = test system: Colo205 human colon carcinoma xenografts; assay: in vivo chemopotentiation, Colo205 xenograft; set-up: species or system mice
Procedure: Experiments 1 to 39 were conducted in mice xenografts. Experiments 40-42 were conducted in rat xenografts. Specifically, irinotecan combination studies were conducted in HT29 and Colo205. Gemcitabine combination studies were conducted in Colo205. Docetaxel combination studies were conducted in Colo205.
Gemcitabine and irinotecan are DNA directed cytotoxics known to induce checkpoint activation and subsequent S/G2M-phase arrest. […] Docetaxel is an antimitotics where recent discoveries describe a novel function for CHK1 in the mitotic checkpoint.

[2] = Exp 1, gemcitabine 120 mg/kg IP Q3d×4, Compound 1 0 mg/kg
[3] = Exp 2, gemcitabine 120 mg/kg IP Q3d×4 + Compound 1 4 mg/kg IP Q3d×4 24 h after
[4] = Exp 3, gemcitabine 120 mg/kg IP Q3d×4 + Compound 1 8 mg/kg IP Q3d×4 24 h after
[5] = Exp 4, gemcitabine 120 mg/kg IP Q3d×4 + Compound 1 12 mg/kg IP Q3d×4 24 h after
[6] = Exp 5, gemcitabine 120 mg/kg IP Q3d×4 + Compound 1 20 mg/kg IP Q3d×4 24 h after
[7] = Exp 6, gemcitabine 120 mg/kg IP Q3d×4 + Compound 1 24 mg/kg IP Q3d×4 24 h after
[8] = Exp 7, gemcitabine 120 mg/kg IP Q3d×4 + Compound 1 40 mg/kg IP Q3d×4 24 h after

## Nc1ccn([C@@H]2O[C@H](CO)[C@@H](O)C2(F)F)c(=O)n1 [Gemcitabine]
Colo205 (Colon)
  PF50 (Potentiation Factor50): 11.3
MDA-MB-231 (Breast)
  PF50 (Potentiation Factor50): 3.6
K562 (Leukemia)
  PF50 (Potentiation Factor50): 5.6
PC-3 (Prostate)
  PF50 (Potentiation Factor50): 12.2
HT29 (Colon)
  PF50 (Potentiation Factor50): 9
[1]; [2]
  % TGI: 58%
  Growth delay: 8 days
[1]; [3]
  % TGI: 58%
  Growth delay: 8 days
[1]; [4]
  % TGI: 63%
  % poten TGI: 12%
  Growth delay: 8 days
[1]; [5]
  % TGI: 68%
  % poten TGI: 23%
  Growth delay: 8.5 days
[1]; [6]
  % TGI: 76%
  % TTP: 17%
  % poten TGI: 43%
  Growth delay: 12 days
[1]; [7]
  % TGI: 81%
  % TTP: 17%
  % poten TGI: 55%
  Growth delay: 12 days
[1]; [8]
  % TGI: 90%
  % TTP: 50%
  % poten TGI: 75%
  Growth delay: 20 days

## CCc1c2c(nc3ccc(O)cc13)-c1cc3c(c(=O)n1C2)COC(=O)[C@]3(O)CC [SN-38]
Colo205 (Colon)
  PF50 (Potentiation Factor50): 2.1
MDA-MB-231 (Breast)
  PF50 (Potentiation Factor50): 2.4
K562 (Leukemia)
  PF50 (Potentiation Factor50): 1.9
PC-3 (Prostate)
  PF50 (Potentiation Factor50): 1.3
HT29 (Colon)
  PF50 (Potentiation Factor50): 3.7
